Series [1] deals with T1, Acetylcholinesterase (Electrophorus electricus, UniProt O42275). Nature of the series: Inhibition of electric eel AChE.
The nature of series [2]: Inhibition of voltage-dependent Ca2+ channel. To be noted: concentration not given here.
The target in series [3] is Cholinesterase (Homo sapiens, UniProt P06276).
Description: Inhibition of human BuChE using butyrylthiocholine iodide as substrate incubated for 10 mins prior to substrate addition measured after 15 mins by Ellman's method
The target in series [4] is Acetylcholinesterase (Homo sapiens, UniProt P22303).
Description: Inhibition of human AChE using acetylthiocholine iodide as substrate incubated for 10 mins prior to substrate addition measured after 15 mins by Ellman's method
For series [5], the target named is T1, Acetylcholinesterase. Kind of series: Mixed-type inhibition of electric eel AChE using acetylthiocholine iodide as substrate by Ellman's method. In general terms: DTNB colorimetry detects thiols as they appear.
Series [6] is described as follows: Antioxidant activity assessed as AAPH-induced radical scavenging activity incubated for 15 mins prior to AAPH induction measured every 1 min for 80 mins by ORAC-FL assay relative to trolox. Type of series: functional.
Series [7] in a line: in vitro. To be noted: human, HepG2 cells.
Description: Cytotoxicity against human HepG2 cells assessed as cell viability at 300 uM after 24 hrs by MTT assay relative to control
A short description of series [8]: Permeability of the compound by PAMPA. It is filed as ADME. The settings on record: read-out: permeability. On the technique in general: In PAMPA a lipid-coated filter parts donor from acceptor wells.
A short description of series [9]: in vitro. To be noted: human, HepG2 cells. This is another data set of the same source.
Description: Cytotoxicity against human HepG2 cells assessed as cell viability at 1 uM after 24 hrs by MTT assay relative to control
Series [10] in a line: in vitro. To be noted: human, HepG2 cells. This is another data set of the same source.
Description: Cytotoxicity against human HepG2 cells assessed as cell viability at 100 uM after 24 hrs by MTT assay relative to control
Series [11] in a line: in vitro. To be noted: human, HepG2 cells. This is another data set of the same source.
Description: Cytotoxicity against human HepG2 cells assessed as cell viability at 10 uM after 24 hrs by MTT assay relative to control
Series [12] can be described thus: Neurotoxicity in Wistar rat primary cortical neurons assessed as decrease in cell viability at 100 uM by XTT assay. It is filed as toxicity, cell-based. To be noted: cerebral cortex neuron. For orientation: Tetrazolium assays rely on reduction of a dye to a coloured formazan, in cell work by metabolically active cells.
In series [13] the test system is HepG2. Kind of series: Cytotoxicity against human HepG2 cells assessed as cell viability after 24 hrs by MTT assay relative to control. It is filed as cell-based. To be noted: hepg2, 24 h.
Series [14] is described as follows: Neurotoxicity in Wistar rat primary cortical neurons assessed as decrease in cell viability at 50 uM by XTT assay. Type of series: toxicity, cell-based. To be noted: cerebral cortex neuron.
Series [15] can be described thus: in vitro. The settings on record: human, HepG2 cells. This is another data set of the same source.
Description: Cytotoxicity against human HepG2 cells assessed as cell viability at 3 uM after 24 hrs by MTT assay relative to control
Series [16] is described as follows: cells. To be noted: Rattus norvegicus, Wistar, Cerebral cortex neuron, 24 h.
Description: Neuroprotective activity in 20 uM rotenone and 10 uM oligomycin-treated Wistar rat primary cortical neurons assessed as increase in cell viability after 24 hrs by XTT assay
Series [17] is described as follows: in vitro. To be noted: human, HepG2 cells. This is another data set of the same source.
Description: Cytotoxicity against human HepG2 cells assessed as cell viability at 30 uM after 24 hrs by MTT assay relative to control

Bounds are passed on as bounds.

Chain of Cholinesterase (P06276 whole entry): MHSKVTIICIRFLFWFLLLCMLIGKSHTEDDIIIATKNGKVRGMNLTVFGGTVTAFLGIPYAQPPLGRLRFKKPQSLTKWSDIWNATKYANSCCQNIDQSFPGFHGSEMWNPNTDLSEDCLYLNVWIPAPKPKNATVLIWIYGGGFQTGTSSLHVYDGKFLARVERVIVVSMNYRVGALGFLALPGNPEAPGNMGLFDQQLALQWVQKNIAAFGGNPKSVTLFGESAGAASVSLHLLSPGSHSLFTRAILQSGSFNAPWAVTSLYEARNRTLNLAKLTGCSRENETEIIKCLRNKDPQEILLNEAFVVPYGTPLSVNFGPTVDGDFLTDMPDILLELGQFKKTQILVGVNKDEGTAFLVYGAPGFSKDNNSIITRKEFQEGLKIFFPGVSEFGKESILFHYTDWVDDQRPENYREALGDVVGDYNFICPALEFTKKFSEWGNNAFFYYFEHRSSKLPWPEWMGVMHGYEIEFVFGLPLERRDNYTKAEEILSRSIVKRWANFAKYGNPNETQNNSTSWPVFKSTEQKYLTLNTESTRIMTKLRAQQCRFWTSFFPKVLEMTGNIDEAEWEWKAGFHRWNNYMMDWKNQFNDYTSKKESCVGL
Chain of Acetylcholinesterase (Homo sapiens, UniProt P22303) (P22303 whole entry): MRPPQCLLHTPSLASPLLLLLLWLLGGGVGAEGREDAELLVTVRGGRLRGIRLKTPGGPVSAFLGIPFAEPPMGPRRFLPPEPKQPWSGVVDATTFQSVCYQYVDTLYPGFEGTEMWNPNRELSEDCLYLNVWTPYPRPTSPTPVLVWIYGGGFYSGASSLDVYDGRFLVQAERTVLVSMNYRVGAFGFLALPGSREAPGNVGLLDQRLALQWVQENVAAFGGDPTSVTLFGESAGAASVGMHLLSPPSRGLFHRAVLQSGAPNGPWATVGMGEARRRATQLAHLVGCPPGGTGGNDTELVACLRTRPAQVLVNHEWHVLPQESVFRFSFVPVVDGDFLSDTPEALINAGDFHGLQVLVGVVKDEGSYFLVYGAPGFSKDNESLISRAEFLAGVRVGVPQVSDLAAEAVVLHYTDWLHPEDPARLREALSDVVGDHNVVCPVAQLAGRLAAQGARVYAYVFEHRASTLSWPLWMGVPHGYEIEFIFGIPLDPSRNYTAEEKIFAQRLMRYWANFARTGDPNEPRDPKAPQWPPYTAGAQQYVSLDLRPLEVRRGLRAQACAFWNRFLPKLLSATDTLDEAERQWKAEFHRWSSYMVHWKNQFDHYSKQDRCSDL
T1 sequence (O42275 whole entry): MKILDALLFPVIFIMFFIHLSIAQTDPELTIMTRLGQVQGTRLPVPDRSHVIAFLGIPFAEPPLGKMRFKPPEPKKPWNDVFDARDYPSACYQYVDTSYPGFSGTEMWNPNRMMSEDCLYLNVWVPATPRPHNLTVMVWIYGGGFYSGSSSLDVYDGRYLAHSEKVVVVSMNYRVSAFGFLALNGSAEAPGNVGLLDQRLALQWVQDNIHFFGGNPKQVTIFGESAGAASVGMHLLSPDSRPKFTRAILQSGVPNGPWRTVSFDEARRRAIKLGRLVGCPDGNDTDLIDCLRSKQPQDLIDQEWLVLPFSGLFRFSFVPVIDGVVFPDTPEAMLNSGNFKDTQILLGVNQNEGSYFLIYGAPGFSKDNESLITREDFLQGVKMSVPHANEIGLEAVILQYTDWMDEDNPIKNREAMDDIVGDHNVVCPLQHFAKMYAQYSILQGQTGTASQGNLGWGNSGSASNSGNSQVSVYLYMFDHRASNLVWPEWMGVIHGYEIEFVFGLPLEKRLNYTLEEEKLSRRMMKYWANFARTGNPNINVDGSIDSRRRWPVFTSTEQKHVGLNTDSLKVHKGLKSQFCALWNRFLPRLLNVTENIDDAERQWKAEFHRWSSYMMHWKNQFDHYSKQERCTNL

For orientation: IC50 means the concentration needed to halve the response being measured. A low value points to greater potency. One may read the inhibition as the percentage by which the read-out fell short of the control. The low end stands for a weak effect, the high end for a strong effect. For the molecule `CCOC(=O)c1c(C)nc2nc3c(c(N)c2c1-c1ccc(F)cc1)CCCC3`, in series [1], the IC50 amounted to 0.71 µM. In series [2], this molecule had an inhibition of 38%.
For `CCOC(=O)C1=C(C)Oc2nc3c(c(N)c2C1c1ccc(OC)cc1)CCCC3` (stereo not drawn), in series [2], the inhibition is 50%.
In the case of `Nc1c2c(nc3c1C(c1ccccc1)c1ccc4ccccc4c1O3)CCCC2` (racemic), the IC50 in [3] is more than 10 µM; in series [4], 0.3 µM.
`Cc1ccc(C2c3ccc4ccccc4c3Oc3nc4c(c(N)c32)CCCC4)cc1` (racemic): the results for the IC50 in series [3] and in series [4] were more than 10 µM and 0.4 µM, respectively.
Regarding `Nc1c2c(nc3c1C(c1ccc(O)cc1)c1ccc4ccccc4c1O3)CCCC2` (racemic), the IC50 was more than 10 µM in series [3] and 7.83 µM in series [4].
Consider `COc1ccccc1C1c2ccc3ccccc3c2Oc2nc3c(c(N)c21)CCCC3` (racemic), for which the values for the IC50 in series [3] and in series [4] were 9.37 µM and 4.53 µM, respectively.
One may read the Ki as a dissociation constant, usually derived from enzyme kinetics or from competition with a known ligand. A lower Ki goes with a stronger hold on the target. As to `COc1cc(C2c3ccc4ccccc4c3Oc3nc4c(c(N)c32)CCCC4)ccc1O` (racemic), the IC50 in series [3] was more than 10 µM; in series [4], 0.33 µM. In series [5], this molecule had a Ki of 0.081 µM. Further, the fold change (FC) in series [6] was 1.5.
As usually defined, the viability is the share of living cells, or the viability signal relative to a control. Lower therefore signals more harm to the cells. The term EC50 denotes the concentration that produces a half-maximal response. A low value points to higher potency in that assay. In turn, `COc1ccc(C2c3ccc4ccccc4c3Oc3nc4c(c(N)c32)CCCC4)c(OC)c1` (racemic) gave a viability at 24 h, 300 µM in series [7] of 74.8%. In series [8], the Papp was 14.6 ×10⁻⁶ cm/s. Further, in series [9], the viability at 24 h, 1 µM is 97.8%. In addition, the IC50 in series [3] is more than 10 µM; in series [4], 0.37 µM. The viability at 24 h, 100 µM in [10] came out at 78.9%. The molecule also displayed a viability at 24 h, 10 µM in series [11] of 85.3%. The figures for the Activity in series [12], in series [13] and in series [14] were 40%, “Dose-dependent effect” and “Non-toxic”, respectively. The molecule further returned a viability at 24 h, 3 µM in [15] of 84.2%. The molecule further gave an EC50 in series [16] of 11.1 µM. In series [17], this molecule came in with a viability at 24 h, 30 µM of 76.9%.
As to `COc1cc(C2c3ccc4ccccc4c3Oc3nc4c(c(N)c32)CCCC4)cc(OC)c1OC` (racemic), the viability at 24 h, 300 µM in series [7] turned out to be 93.5%. Besides, the Papp in [8] is 23.4 ×10⁻⁶ cm/s. The molecule further had a viability at 24 h, 1 µM in series [9] of 96.5%. Further, the IC50 in series [3] is more than 10 µM; in series [4], 3.51 µM. This molecule returned a viability at 24 h, 100 µM in series [10] of 94.5%. The molecule further returned a viability at 24 h, 10 µM in series [11] of 96.4%. Besides, the results for the Activity result in series [13] and in series [14] were “Dose-dependent effect” and “Non-toxic”, respectively. The viability at 24 h, 3 µM in series [15] came to 95.6%. This molecule also yielded an EC50 in series [16] of 4.38 µM. The same molecule gave a viability at 24 h, 30 µM in series [17] of 96.6%.
As for `Nc1c2c(nc3c1C(c1ccc([N+](=O)[O-])cc1)c1ccc4ccccc4c1O3)CCCC2` (racemic), the viability at 24 h, 300 µM in series [7] came out at 72.1%. For the same molecule, in series [8], the Papp is 16.1 ×10⁻⁶ cm/s. The viability at 24 h, 1 µM in series [9] was determined as 95%. The IC50 is more than 10 µM in [3] and 5.74 µM in [4]. This molecule yielded a viability at 24 h, 100 µM in [10] of 85%. For the same molecule, the viability at 24 h, 10 µM in [11] was 92.6%. Besides, the Activity is 40% in [12], “Dose-dependent effect” in series [13] and “Non-toxic” in series [14]. The viability at 24 h, 3 µM in [15] turned out to be 93%. In series [16], this molecule had an EC50 of 2.36 µM. The viability at 24 h, 30 µM in series [17] worked out at 90.3%.
Turning to `Nc1c2c(nc3c1C(c1c(Cl)cccc1Cl)c1ccc4ccccc4c1O3)CCCC2` (racemic), the IC50 in series [3] is more than 10 µM; in series [4], 4.01 µM.
Consider `Nc1c2c(nc3c1C(c1ccc(Cl)c(Cl)c1)c1ccc4ccccc4c1O3)CCCC2` (racemic), for which the viability at 24 h, 300 µM in [7] is 61%. The Papp in series [8] amounted to 12.3 ×10⁻⁶ cm/s. In series [9], the viability at 24 h, 1 µM amounted to 97.5%. The IC50 was more than 10 µM in [3] and 5.07 µM in series [4]. Besides, the viability at 24 h, 100 µM in series [10] worked out at 63.4%. The viability at 24 h, 10 µM in [11] is 79.9%. Also, the Activity is 40% in series [12], “Dose-dependent effect” in series [13] and “Non-toxic” in series [14]. The molecule further gave a viability at 24 h, 3 µM in [15] of 86.2%. In [16], this molecule had an EC50 of 3.28 µM. The molecule further showed a viability at 24 h, 30 µM in series [17] of 68.1%.

The record behind these values is ChEMBL document CHEMBL2203041, “Synthesis, biological assessment, and molecular modeling of racemic 7-aryl-9,10,11,12-tetrahydro-7H-benzo[7,8]chromeno[2,3-b]quinolin-8-amines as potential drugs for the treatment of Alzheimer's disease” (Eur J Med Chem, 2012).
